#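 96-well plates; 48 h exposure; 5 concentrations. Endpoints by linear interpolation between flanking doses. Not reached: highest tested concentration assigned. Here, GI50 denotes the concentration required for 50% inhibition of growth.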 Activity calls are given as the source filed them. Cut-off read from the data, not from the text of the source: active = GI50 up to about 1.1 µM and inactive = higher.
# Tests used:
# Experiment in all cases: DTP human tumour cell line panel, 48 h
# 786-0 = tested on: 786-0
# A498 = tested on: A498
# A549 = tested on: A549
# ACHN = tested on: ACHN
# CAKI-1 = tested on: CAKI-1
# CCRF-CEM = tested on: CCRF-CEM
# COLO 205 = tested on: COLO 205
# DLD-1 = tested on: DLD-1
# DMS-114 = tested on: DMS-114
# DMS-273 = tested on: DMS-273
# EKVX = tested on: EKVX
# HCC 2998 = tested on: HCC 2998
# HCT-15 = tested on: HCT-15
# HL-60 = tested on: HL-60
# HOP-18 = tested on: HOP-18
# HT-29 = tested on: HT-29
# IGROV-1 = tested on: IGROV-1
# K562 = tested on: K562
# KM-20L2 = tested on: KM-20L2
# KM12 = tested on: KM12
# LOX IMVI = tested on: LOX IMVI
# LXFL 529 = tested on: LXFL 529
# M14 = tested on: M14
# M19-MEL = tested on: M19-MEL
# MOLT-4 = tested on: MOLT-4
# Malme-3M = tested on: Malme-3M
# NCI-H226 = tested on: NCI-H226
# NCI-H23 = tested on: NCI-H23
# NCI-H460 = tested on: NCI-H460
# OVCAR-3 = tested on: OVCAR-3
# OVCAR-4 = tested on: OVCAR-4
# OVCAR-5 = tested on: OVCAR-5
# OVCAR-8 = tested on: OVCAR-8
# RPMI-8226 = tested on: RPMI-8226
# RXF 393 = tested on: RXF 393
# RXF 631 = tested on: RXF 631
# SF-268 = tested on: SF-268
# SF-295 = tested on: SF-295
# SK-MEL-28 = tested on: SK-MEL-28
# SK-MEL-2 = tested on: SK-MEL-2
# SK-MEL-5 = tested on: SK-MEL-5
# SK-OV-3 = tested on: SK-OV-3
# SN12C = tested on: SN12C
# SNB-19 = tested on: SNB-19
# SNB-75 = tested on: SNB-75
# SNB-78 = tested on: SNB-78
# SW-620 = tested on: SW-620
# TK-10 = tested on: TK-10
# U-251 = tested on: U-251
# UACC-257 = tested on: UACC-257
# UACC-62 = tested on: UACC-62
# UO-31 = tested on: UO-31
# XF498 = tested on: XF498
smiles,measurement,setting,value
COc1cc2c(cc1OC)C(CC1=C(c3ccccc3)CN3CCc4cc(OC)c(OC)cc4C3C1)NCC2 (stereo not drawn),GI50,786-0,15.7 µM (inactive)
same,GI50,A498,16.7 µM (inactive)
same,GI50,A549,17 µM (inactive)
same,GI50,ACHN,24.3 µM (inactive)
same,GI50,CAKI-1,25.7 µM (inactive)
same,GI50,CCRF-CEM,14.6 µM (inactive)
same,GI50,COLO 205,15.2 µM (inactive)
same,GI50,DLD-1,19.1 µM (inactive)
same,GI50,DMS-114,14.3 µM (inactive)
same,GI50,DMS-273,15.7 µM (inactive)
same,GI50,EKVX,21.8 µM (inactive)
same,GI50,HCC 2998,10.6 µM (inactive)
same,GI50,HCT-15,17.7 µM
same,GI50,HL-60,12.2 µM (inactive)
same,GI50,HOP-18,14.6 µM (inactive)
same,GI50,HT-29,10.4 µM (inactive)
same,GI50,IGROV-1,16.6 µM (inactive)
same,GI50,K562,12.2 µM (inactive)
same,GI50,KM-20L2,13.4 µM (inactive)
same,GI50,KM12,17.2 µM (inactive)
same,GI50,LOX IMVI,15.8 µM (inactive)
same,GI50,LXFL 529,16.6 µM (inactive)
same,GI50,M14,21.3 µM (inactive)
same,GI50,M19-MEL,17 µM (inactive)
same,GI50,MOLT-4,9.91 µM (inactive)
same,GI50,Malme-3M,19.5 µM (inactive)
same,GI50,NCI-H226,18.9 µM (inactive)
same,GI50,NCI-H23,23.1 µM (inactive)
same,GI50,NCI-H460,18.8 µM (inactive)
same,GI50,OVCAR-3,17.3 µM (inactive)
same,GI50,OVCAR-4,14 µM (inactive)
same,GI50,OVCAR-5,18.5 µM (inactive)
same,GI50,OVCAR-8,19.3 µM (inactive)
same,GI50,RPMI-8226,9.84 µM (inactive)
same,GI50,RXF 393,2.66 µM (inactive)
same,GI50,RXF 631,14.8 µM (inactive)
same,GI50,SF-268,15 µM (inactive)
same,GI50,SF-295,16.8 µM (inactive)
same,GI50,SK-MEL-28,14.5 µM (inactive)
same,GI50,SK-MEL-2,20.5 µM (inactive)
same,GI50,SK-MEL-5,12.4 µM (inactive)
same,GI50,SK-OV-3,28 µM (inactive)
same,GI50,SN12C,17.9 µM (inactive)
same,GI50,SNB-19,19.6 µM (inactive)
same,GI50,SNB-75,12.5 µM (inactive)
same,GI50,SNB-78,15.6 µM (inactive)
same,GI50,SW-620,17.7 µM (inactive)
same,GI50,TK-10,16.6 µM (inactive)
same,GI50,U-251,15.2 µM (inactive)
same,GI50,UACC-257,16.2 µM (inactive)
same,GI50,UACC-62,20.4 µM (inactive)
same,GI50,UO-31,11.1 µM (inactive)
same,GI50,XF498,11.7 µM (inactive)

# — ChEMBL document CHEMBL1201862, “PubChem BioAssay data set” (2004)
